The conditions of series [1]: cited from earlier work.
Series [2] is described as follows: Shake-flask equilibrium solubility in FaSSIF V1. The format is physicochemical. As to conditions: for solubility thermodynamic at 24 h: pH 6.5, thermodynamic from solid, FaSSIF V1, pH 6.50 ± 0.05, 37 °C, read-out: CS FaSSIF V1 (thermodynamic solubility). On the procedure:
Equilibrium solubilities of the three APIs in FaSSIF V1 were measured with the shake-flask method, following the ICH M9 guideline on BCS-based biowaivers. Briefly, an excess amount of each API was weighed into a 5 mL vial and the assay medium (FaSSIF V1) was added. The resulting suspensions were incubated at 37.0 ± 0.5 °C (Memmert Incubator IN750, Memmert GmbH + Co. KG, Schwabach, Germany) and agitated for 24 h at 25 rpm (LABINCO LD76 Digital Rotary Mixer, Labinco BV, Breda, The Netherlands). At 2, 4, 6 and 24 h, samples were drawn and filtered through Acrodisc 13 mm with 0.45 µm PTFE filters (Pall Corporation, Port Washington, NY, USA) after establishing that adsorption of the APIs onto the filters was less than 5%. Before sampling, the suspensions were checked visually for the presence of solid particles and the pH was measured (Metrohm 780 pH Meter, Metrohm AG, Herisau, Switzerland). All measured pH values were within the specified range of pH 6.50 ± 0.05, so no pH adjustment was necessary. The filtrates were diluted with a 1:1 mixture of ACN and Milli-Q water for analysis using ultra-performance liquid chromatography with UV detection (UPLC-UV).
XRPD patterns of the residual solids were compared to the starting material and literature profiles. A differential scanning calorimetry (DSC) analysis of the input materials was additionally performed. Istradefylline samples were protected from light in all studies using amber vials and aluminum foil to prevent photolysis. The experimental details of the UPLC-UV methods and solid state analyses can be found in Supplementary Materials.
The solubility experiments were performed in triplicate (n = 3) and solubilities are presented as means (± SD). The mean values were used as input for the rDCS and rtarget calculations.
S.2.4. rDCS Standard Investigations: Solubility Studies
Samples from the solubility studies were analyzed with UPLC‐UV analysis. For voriconazole and lemborexant a Waters Acquity UPLC System consisting of a sample manager, a binary solvent manager, and a PDA detector was used (Waters Corporation, Milford, USA). For istradefylline a Waters Acquity UPLC H‐Class System consisting of a sample manager, a quarternary solvent manager, and a PDA detector was used (Waters Corporation, Milford, MA , USA). The chromatograms were recorded and processed using the software Empower® version 3.0. Representative chromatograms for each API are shown in […]
the FaSSIF V1 solubility study were collected and examined using X‐ray powder diffraction (XRPD) analysis to detect solution‐mediated solid state changes. After 24 h, 1 to 5 mg of the residual solid was collected, pl aced on a zero‐background holder and allowed to sit at room temperature for 2 h. […]

A short description of series [3]: Shake-flask n-octanol/water logDpH7.4 with HPLC-UV. The format is physicochemical. As to conditions: octanol / 0.01 M phosphate buffer pH 7.4, 25 °C. As to the method: LogDpH7.4 values of the three APIs were determined at Pion Inc (UK) Ltd. (Forest Row, UK) using a shake-flask screening method and high performance liquid chromatography with UV detection (HPLC-UV). Samples containing the API were equilibrated between octanol-saturated 0.01 M phosphate buffer at pH 7.4 and buffer-saturated octanol and analyzed by HPLC-UV. The experimental details are provided in Supplementary Materials. Measured logDpH7.4 values are presented as means (±SD) and were compared to literature values as well as in silico predictions using the software ADMET Predictor version 9 and ACD/Labs Release 2021.1.2. […]
version 9 (Simulations Plus Inc., Lancaster, CA, USA) and ACD/ Labs Release 2021.1.2 (Advanced Chemistry Devel opment Inc., Toronto, Canada) with the molecular structure as input.
S.2.3. n‐Octanol/Water Distribution Coefficient (logDpH7.4) […]
screening method and HPLC analysis. Samples (n = 3) were prepared by addition of a 10 mM API stock solution in DMSO to an oct anol saturated 0.01 M phosphate buffer at pH 7.4 to prepare a 1:10 dilution (ionic strength adjusted with 0.15 M NaCl). Buffer saturated octanol was added (1:1) to prepare pa rtiti on systems, which were agitated on an electronic shake pla te for 4 h at 25 ± 2°C. All samples were centrifuged, and aqueous and octanol layers were separately transferred to 96 well plat es. Both layers of each replicate were analyzed with a standard HPLC gradient method (Table S3). A Waters Acquity H‐Class Plus System consisting of a sample manager, a quaternary solvent manager and a photodiode array (PDA) detector was used. All HPLC data was collected and processed using the software Empower® version 3.0. Measured logDpH7.4 values are presented as means with standard deviation and were compared to literature va lu es and predictions using the software ADMET Predictor version 9 and ACD/Labs Release 2021.1.2 wit h the molecular structure as input.
Table S3. Standard HP LC method for the determination of logDpH7.4 values.
System Waters Acquity H‐Class Plus System […]

In brackets after ≈: the same amount, converted by molar mass. Where two headings read alike, the source gives them in different places.

A word on the solubility (thermodynamic): it is solubility found after equilibrating the solid with the medium. Broadly, the logD is the decadic logarithm of the distribution of all forms, ionised or not, between an organic phase and buffer at a given pH. Usually solubility stands for the concentration that dissolves in the medium under given conditions.

Turning to `CCn1c(=O)c2c(nc(/C=C/c3ccc(OC)c(OC)c3)n2C)n(CC)c1=O` [Istradefylline, istradefylline], the “Literature pKa” value in series [1] (basic pKa, method not disclosed) was 0.78 ^3 [31, 34]. For the same molecule, the solubility (thermodynamic) at 24 h in series [2] was 3.59 ± 0.05 µg/mL (≈ 9.34 µM). For the same molecule, the logD at 4 h in series [3] was 2.96 ± 0.03.
Take `Cc1ncc(OC[C@@]2(c3cccc(F)c3)C[C@H]2C(=O)Nc2ccc(F)cn2)c(C)n1` [Lemborexant, lemborexant]: the “Literature pKa” value in series [1] (estimated by capillary electrophoresis) was <3.50 [33]. In addition, the solubility (thermodynamic) at 24 h in series [2] was 23.3 ± 0.1 µg/mL (≈ 56.8 µM). In series [3], this molecule returned a logD at 4 h of 3.04 ± 0.05.
On to `C[C@@H](c1ncncc1F)[C@](O)(Cn1cncn1)c1ccc(F)cc1F` [Voriconazole, voriconazole], for which the “Literature pKa” value in series [1] (basic pKa, triazole moiety, method not disclosed) is 1.76 ^3 [32]. The thermodynamic solubility at 24 h in series [2] is 827 ± 6 µg/mL (≈ 2370 µM). Moreover, in series [2] (pH 6.5, Excel template input, FaSSIF V1, read-out: Estimate of intestinal solubility (CS)), the solubility at 24 h was 827 µg/mL (≈ 2370 µM). For the same molecule, the logD at 4 h in series [3] was 1.66 ± 0.03.
